ChEMBL document CHEMBL1255418, “Occurrence of ST23 complex phylogroup A Escherichia coli isolates producing extended-spectrum AmpC beta-lactamase in a French hospital” (2010)
Converted amounts (≈) assume the structure as drawn.

What follows are molecules tested on Escherichia coli (assay: Antimicrobial activity against Escherichia coli isolate 8009162 AmpC with A292V mutation).
Format: functional

With CO/N=C(\C(=O)N[C@@H]1C(=O)N2C(C(=O)O)=C(COC(C)=O)CS[C@H]12)c1csc(N)n1 [CEFOTAXIME] as the molecule, how does the MIC read?
The MIC was 8 µg/mL (≈ 17.6 µM).

CC(C)(O/N=C(\C(=O)N[C@@H]1C(=O)N2C(C(=O)[O-])=C(C[n+]3ccccc3)CS[C@H]12)c1csc(N)n1)C(=O)O [CEFTAZIDIME] was tested. Which MIC did it give?
The MIC was 64 µg/mL (≈ 117 µM).

What follows are molecules tested on Escherichia coli (assay: Antimicrobial activity against wild-type AmpC producing Escherichia coli ATCC 25922).
Format: functional

For CO/N=C(\C(=O)N[C@@H]1C(=O)N2C(C(=O)O)=C(COC(C)=O)CS[C@H]12)c1csc(N)n1 [CEFOTAXIME], which MIC is on record?
Its MIC is less than 0.06 µg/mL.

With CC(C)(O/N=C(\C(=O)N[C@@H]1C(=O)N2C(C(=O)[O-])=C(C[n+]3ccccc3)CS[C@H]12)c1csc(N)n1)C(=O)O [CEFTAZIDIME] as the molecule, how does the MIC read?
Its MIC is 0.09 µg/mL (≈ 0.165 µM).

These molecules were tested on Escherichia coli (assay: Antimicrobial activity against Escherichia coli isolate 8009989 with AmpC beta-lactamase H296P mutation).
Format: functional

How did the MIC turn out when CO/N=C(\C(=O)N[C@@H]1C(=O)N2C(C(=O)O)=C(COC(C)=O)CS[C@H]12)c1csc(N)n1 [CEFOTAXIME] was run?
Its MIC is 8 µg/mL (≈ 17.6 µM).

CC(C)(O/N=C(\C(=O)N[C@@H]1C(=O)N2C(C(=O)[O-])=C(C[n+]3ccccc3)CS[C@H]12)c1csc(N)n1)C(=O)O [CEFTAZIDIME] was tested. Which MIC did it give?
Its MIC is no less than 64 µg/mL.

Each molecule was assayed on Escherichia coli (assay: Antimicrobial activity against Escherichia coli isolate 7014517 AmpC with LAA insertion at position 295).
Format: functional

For CO/N=C(\C(=O)N[C@@H]1C(=O)N2C(C(=O)O)=C(COC(C)=O)CS[C@H]12)c1csc(N)n1 [CEFOTAXIME], which MIC is on record?
The MIC was 16 µg/mL (≈ 35.1 µM).

For CC(C)(O/N=C(\C(=O)N[C@@H]1C(=O)N2C(C(=O)[O-])=C(C[n+]3ccccc3)CS[C@H]12)c1csc(N)n1)C(=O)O [CEFTAZIDIME], which MIC is on record?
Its MIC is 64 µg/mL (≈ 117 µM).

The molecules below were run on Escherichia coli (assay: Antimicrobial activity against Escherichia coli isolate 7008710 with AmpC beta-lactamase S287N mutation).
Format: functional

How did the MIC turn out when CO/N=C(\C(=O)N[C@@H]1C(=O)N2C(C(=O)O)=C(COC(C)=O)CS[C@H]12)c1csc(N)n1 [CEFOTAXIME] was run?
The MIC was 16 µg/mL (≈ 35.1 µM).

CC(C)(O/N=C(\C(=O)N[C@@H]1C(=O)N2C(C(=O)[O-])=C(C[n+]3ccccc3)CS[C@H]12)c1csc(N)n1)C(=O)O [CEFTAZIDIME] was tested. Which MIC did it give?
The MIC was no less than 64 µg/mL.

The molecules below were run on Escherichia coli (assay: Antimicrobial activity against AmpC producing Escherichia coli Top10 isolate 25922).
Format: functional

CO/N=C(\C(=O)N[C@@H]1C(=O)N2C(C(=O)O)=C(COC(C)=O)CS[C@H]12)c1csc(N)n1 [CEFOTAXIME] was tested. Which MIC did it give?
Its MIC is 0.75 µg/mL (≈ 1.65 µM).

For CC(C)(O/N=C(\C(=O)N[C@@H]1C(=O)N2C(C(=O)[O-])=C(C[n+]3ccccc3)CS[C@H]12)c1csc(N)n1)C(=O)O [CEFTAZIDIME], which MIC is on record?
Its MIC is 4 µg/mL (≈ 7.32 µM).

What follows are molecules tested on Escherichia coli (assay: Antimicrobial activity against Escherichia coli isolate 7008211 with AmpC beta-lactamase H296P mutation).
Format: functional

With CO/N=C(\C(=O)N[C@@H]1C(=O)N2C(C(=O)O)=C(COC(C)=O)CS[C@H]12)c1csc(N)n1 [CEFOTAXIME] as the molecule, how does the MIC read?
The MIC was 8 µg/mL (≈ 17.6 µM).

CC(C)(O/N=C(\C(=O)N[C@@H]1C(=O)N2C(C(=O)[O-])=C(C[n+]3ccccc3)CS[C@H]12)c1csc(N)n1)C(=O)O [CEFTAZIDIME] was tested. Which MIC did it give?
The MIC was no less than 64 µg/mL.

These molecules were tested on Escherichia coli (assay: Antimicrobial activity against AmpC producing Escherichia coli Top10 isolate 7014517).
Format: functional

For CO/N=C(\C(=O)N[C@@H]1C(=O)N2C(C(=O)O)=C(COC(C)=O)CS[C@H]12)c1csc(N)n1 [CEFOTAXIME], which MIC is on record?
The MIC was 32 µg/mL (≈ 70.3 µM).

CC(C)(O/N=C(\C(=O)N[C@@H]1C(=O)N2C(C(=O)[O-])=C(C[n+]3ccccc3)CS[C@H]12)c1csc(N)n1)C(=O)O [CEFTAZIDIME] was tested. Which MIC did it give?
The MIC was greater than 256 µg/mL.

The molecules below were run on Escherichia coli (assay: Antimicrobial activity against Escherichia coli isolate 5000869 with AmpC beta-lactamase H296P mutation).
Format: functional

For CO/N=C(\C(=O)N[C@@H]1C(=O)N2C(C(=O)O)=C(COC(C)=O)CS[C@H]12)c1csc(N)n1 [CEFOTAXIME], which MIC is on record?
Its MIC is 4 µg/mL (≈ 8.78 µM).

How did the MIC turn out when CC(C)(O/N=C(\C(=O)N[C@@H]1C(=O)N2C(C(=O)[O-])=C(C[n+]3ccccc3)CS[C@H]12)c1csc(N)n1)C(=O)O [CEFTAZIDIME] was run?
The MIC was no less than 64 µg/mL.

These molecules were tested on Escherichia coli (assay: Antimicrobial activity against Escherichia coli isolate 4009273 with AmpC beta-lactamase S287N mutation).
Format: functional

For CO/N=C(\C(=O)N[C@@H]1C(=O)N2C(C(=O)O)=C(COC(C)=O)CS[C@H]12)c1csc(N)n1 [CEFOTAXIME], which MIC is on record?
Its MIC is 8 µg/mL (≈ 17.6 µM).

How did the MIC turn out when CC(C)(O/N=C(\C(=O)N[C@@H]1C(=O)N2C(C(=O)[O-])=C(C[n+]3ccccc3)CS[C@H]12)c1csc(N)n1)C(=O)O [CEFTAZIDIME] was run?
The MIC was no less than 64 µg/mL.

The molecules below were run on Escherichia coli (assay: Antimicrobial activity against AmpC producing Escherichia coli Top10 isolate 8009162).
Format: functional

Which MIC does the source give for CO/N=C(\C(=O)N[C@@H]1C(=O)N2C(C(=O)O)=C(COC(C)=O)CS[C@H]12)c1csc(N)n1 [CEFOTAXIME] here?
Its MIC is 12 µg/mL (≈ 26.3 µM).

How did the MIC turn out when CC(C)(O/N=C(\C(=O)N[C@@H]1C(=O)N2C(C(=O)[O-])=C(C[n+]3ccccc3)CS[C@H]12)c1csc(N)n1)C(=O)O [CEFTAZIDIME] was run?
Its MIC is greater than 256 µg/mL.

These molecules were tested on Escherichia coli (assay: Antimicrobial activity against Escherichia coli isolate 7001178 with AmpC beta-lactamase S287N mutation).
Format: functional

For CO/N=C(\C(=O)N[C@@H]1C(=O)N2C(C(=O)O)=C(COC(C)=O)CS[C@H]12)c1csc(N)n1 [CEFOTAXIME], which MIC is on record?
The MIC was 8 µg/mL (≈ 17.6 µM).

Which MIC does the source give for CC(C)(O/N=C(\C(=O)N[C@@H]1C(=O)N2C(C(=O)[O-])=C(C[n+]3ccccc3)CS[C@H]12)c1csc(N)n1)C(=O)O [CEFTAZIDIME] here?
Its MIC is no less than 64 µg/mL.

These molecules were tested on Escherichia coli (assay: Antimicrobial activity against Escherichia coli isolate 7008153 with AmpC beta-lactamase H296P mutation).
Format: functional

Which MIC does the source give for CO/N=C(\C(=O)N[C@@H]1C(=O)N2C(C(=O)O)=C(COC(C)=O)CS[C@H]12)c1csc(N)n1 [CEFOTAXIME] here?
The MIC was 16 µg/mL (≈ 35.1 µM).

CC(C)(O/N=C(\C(=O)N[C@@H]1C(=O)N2C(C(=O)[O-])=C(C[n+]3ccccc3)CS[C@H]12)c1csc(N)n1)C(=O)O [CEFTAZIDIME] was tested. Which MIC did it give?
The MIC was no less than 64 µg/mL.

Each molecule was assayed on Escherichia coli (assay: Antimicrobial activity against Escherichia coli Top10).
Format: functional

Which MIC does the source give for CO/N=C(\C(=O)N[C@@H]1C(=O)N2C(C(=O)O)=C(COC(C)=O)CS[C@H]12)c1csc(N)n1 [CEFOTAXIME] here?
The MIC was less than 0.06 µg/mL.

With CC(C)(O/N=C(\C(=O)N[C@@H]1C(=O)N2C(C(=O)[O-])=C(C[n+]3ccccc3)CS[C@H]12)c1csc(N)n1)C(=O)O [CEFTAZIDIME] as the molecule, how does the MIC read?
The MIC was less than 0.06 µg/mL.

Each molecule was assayed on Escherichia coli (assay: Antimicrobial activity against Escherichia coli isolate 8009162 with AmpC beta-lactamase A292V mutation).
Format: functional

Which MIC does the source give for CO/N=C(\C(=O)N[C@@H]1C(=O)N2C(C(=O)O)=C(COC(C)=O)CS[C@H]12)c1csc(N)n1 [CEFOTAXIME] here?
Its MIC is 8 µg/mL (≈ 17.6 µM).

CC(C)(O/N=C(\C(=O)N[C@@H]1C(=O)N2C(C(=O)[O-])=C(C[n+]3ccccc3)CS[C@H]12)c1csc(N)n1)C(=O)O [CEFTAZIDIME] was tested. Which MIC did it give?
Its MIC is no less than 64 µg/mL.

What follows are molecules tested on Escherichia coli (assay: Antimicrobial activity against Escherichia coli isolate 7010738 with AmpC beta-lactamase H296P mutation).
Format: functional

For CO/N=C(\C(=O)N[C@@H]1C(=O)N2C(C(=O)O)=C(COC(C)=O)CS[C@H]12)c1csc(N)n1 [CEFOTAXIME], which MIC is on record?
Its MIC is 8 µg/mL (≈ 17.6 µM).

Which MIC does the source give for CC(C)(O/N=C(\C(=O)N[C@@H]1C(=O)N2C(C(=O)[O-])=C(C[n+]3ccccc3)CS[C@H]12)c1csc(N)n1)C(=O)O [CEFTAZIDIME] here?
Its MIC is no less than 64 µg/mL.

The molecules below were run on Escherichia coli (assay: Antimicrobial activity against Escherichia coli isolate 7014517 with AmpC beta-lactamase 295 Ins LAA mutation).
Format: functional

For CO/N=C(\C(=O)N[C@@H]1C(=O)N2C(C(=O)O)=C(COC(C)=O)CS[C@H]12)c1csc(N)n1 [CEFOTAXIME], which MIC is on record?
The MIC was 16 µg/mL (≈ 35.1 µM).

For CC(C)(O/N=C(\C(=O)N[C@@H]1C(=O)N2C(C(=O)[O-])=C(C[n+]3ccccc3)CS[C@H]12)c1csc(N)n1)C(=O)O [CEFTAZIDIME], which MIC is on record?
The MIC was no less than 64 µg/mL.

Each molecule was assayed on Escherichia coli (assay: Antimicrobial activity against Escherichia coli isolate 8009389 with AmpC beta-lactamase H296P mutation).
Format: functional

With CO/N=C(\C(=O)N[C@@H]1C(=O)N2C(C(=O)O)=C(COC(C)=O)CS[C@H]12)c1csc(N)n1 [CEFOTAXIME] as the molecule, how does the MIC read?
Its MIC is 8 µg/mL (≈ 17.6 µM).

With CC(C)(O/N=C(\C(=O)N[C@@H]1C(=O)N2C(C(=O)[O-])=C(C[n+]3ccccc3)CS[C@H]12)c1csc(N)n1)C(=O)O [CEFTAZIDIME] as the molecule, how does the MIC read?
The MIC was no less than 64 µg/mL.
